# Article PMC6316436, “Design of Linear and Cyclic Mutant Analogues of Dirucotide Peptide (MBP82–98) against Multiple Sclerosis: Conformational and Binding Studies to MHC Class II” (Brain Sciences, 2018)
# “Also recorded” adds a separate entry of the source. Read-outs that look alike come from different tables or passages of the source. Ends that are not written are not given here.
# Columns and labels:
# [1] = tested on: experimental autoimmune encephalomyelitis (EAE); details: compared to linear PLP139–151 peptide; ref [30]; cited from earlier work
# Description: The cyclization of peptides is of great interest, since the partial stability of linear peptides restricts them as potential therapeutics. We have extensively studied cyclic peptides for their enhanced stability and their potential to be used as immunotherapeutics in MS due to their altered three-dimensional conformation. […] Similarly, cyclization of the agonist proteolipid protein (PLP139–151) epit ...
# HLA-DR4 = assay: Competition binding of MBP82–98 analogues to HLA-DR4 (AMCA-labeled HA306–318 competitor); set-up: species or system human; details: 37 °C; for binding to HLA-DR4, overall statement: competition with AMCA-labeled HA306–318, 48 h, pH 6.0
# HLA-DR2 = assay: Competition binding of MBP82–98 analogues to HLA-DR2 (AMCA-labeled MBP83–99 competitor); set-up: species or system human; details: 37 °C; for binding affinity to HLA-DR2 (competition), in words: triplicates
# autoreactive T cells = details: intravenous injections, preclinical and clinical studies; ref [15]; cited from earlier work
# Description: Dirucotide is licensed to BioMS Medical Corp and shared the development with Eli Lilly and Company. […] Thus, in the populat ...
# patients with MS = details: ref [16], cited from earlier work
# Description: (§1) Dirucotide is licensed to BioMS Medical Corp and shared the development with Eli Lilly and Company. […] As a result, further planned/scheduled clinical trials were terminated. […] It is likely that ...
# [2] = tested on: patients with relapsing remitting MS and secondary progressive MS; details: phase III, cited from earlier work
# Description: as §1
# [3] = tested on: CD4^+CD25^+Foxp3^+ regulatory T cells; details: ref [18], cited from earlier work
# Description: as §1
# [4] = phase II, HLA-DR2 and HLA-DR4 patients with MS
substance,measurement,setting,value
"cyclic PLP139–151: cyclized agonist proteolipid protein (PLP139–151) epitope (CHCLGKWLGHPDK; also: cyclized; UniProt P60202 139-151, looked up, fragment)",disease burden and pathology,[1],"low disease burden, and minimal inflammatory, demyelinating, and axonopathic pathology compared to the linear PLP139–151 peptide"
"cycloDENPVVHFFK^91NIVTPRT (head to tail) [cyclic MBP82–98, head to tail cyclized dirucotide]","binding affinity to HLA-DR4 (competition), in words","HLA-DR4; 10-fold, 20-fold, 50-fold excess over AMCA-labeled HA306–318 (1 μM), 48 h, 150 mM sodium phosphate pH 6.0, 15% acetonitrile, 0.1% Zwittergent-12, HPSEC fluorescence 350/450 nm, triplicates",considerably lower compared to its linear counterpart and linear APL MBP82–98 (Ala^91)
same,"binding to HLA-DR4, overall statement",HLA-DR4,lower affinity binding to the HLA-DR4 allele; also recorded: binds to HLA-DR2 and HLA-DR4 alleles with considerable affinity
same,"binding affinity to HLA-DR2 (competition), in words","HLA-DR2; 10-fold, 20-fold and 50-fold excess over AMCA-labeled MBP83–99 (1 μM), 48 h, 150 mM sodium phosphate pH 6.0, 15% acetonitrile, 0.1% Zwittergent-12, HPSEC fluorescence 350/450 nm","reduced affinity compared to its linear counterpart at 10-fold, 20-fold and 50-fold excess, but still with comparable affinity"
same,"binding to HLA-DR2, overall statement","HLA-DR2; overall, competition with AMCA-labeled MBP83–99, 48 h, pH 6.0",strong binder with the HLA-DR2 allele; also recorded: binds to HLA-DR2 and HLA-DR4 alleles with considerable affinity; also recorded: higher affinity than MBP82–98 (A^91)
"DENPVVHFFA^91NIVTPRT [linear MBP82–98 (Ala^91), linear altered peptide ligand of dirucotide, K91 mutated to Ala]","binding to HLA-DR4, overall statement",HLA-DR4,considerable higher affinity than cyclic MBP82–98
same,"binding affinity to HLA-DR2 (competition), in words","HLA-DR2; 10-fold and 20-fold excess, AMCA-labeled MBP83–99, 48 h, pH 6.0, HPSEC fluorescence, relative to linear agonist MBP82–98",bound with much lower affinity
same,"binding affinity to HLA-DR2 (competition), in words","HLA-DR2; 50-fold excess, AMCA-labeled MBP83–99, 48 h, pH 6.0, HPSEC fluorescence",comparable to linear agonist MBP82–98 peptide at 50-fold excess
"DENPVVHFFK^91NIVTPRT [dirucotide, 17-mer linear peptide MBP82–98]",suppression of autoreactive T cells,autoreactive T cells,suppress autoreactive T cells
same,T cell responses against MBP82–98 epitope,patients with MS; injected in high concentrations in patients with MS,suppressed T cell responses against MBP82–98 epitope
same,safety,patients with MS; [4],safe
same,time to disease progression,patients with MS; [4],prolonged the median time to disease progression
same,time to disease progression,"patients with MS; phase II, HLA-DR2 and HLA-DR4 patients with MS, listed as Dirucotide",delayed disease progression
same,benefit versus placebo,"[2]; 612 subjects, ref [17]",did not provide any benefit compared to placebo
same,primary and secondary endpoints,"[2]; 612 subjects, ref [17]",no enhanced primary and secondary endpoints achieved
same,benefit versus placebo,"[2]; relapsing remitting MS and secondary progressive MS, ref [17],[18]",no added benefit was noted compared to the placebo group
same,induction of CD4+CD25+Foxp3+ regulatory T cells,[3]; following injection in patients with MS,induce CD4^+CD25^+Foxp3^+ regulatory T cells
same,number of CD4+CD25+Foxp3+ regulatory T cells,[3]; six weeks and six months after treatment,increase in the number of CD4^+CD25^+Foxp3^+ regulatory T cells
